Consider 5 compounds from patent publication US5460977A, “Peptide having allergenicity” (Torii & Co., priority 1992, dated 1995).

Experiment [1] relates to peripheral blood lymphocytes of mite-allergic patient. Description: Blast formation of lymphocytes (3H-thymidine incorporation), mite-allergic patients. The note with it: 7 days culture with peptide, 3H-thymidine overnight; for radioactivity of 3H-thymidine incorporated into lymphocytes, Specimen 1: Specimen 1, lymphocytes of mite-allergic patient; for radioactivity of 3H-thymidine incorporated into lymphocytes, Specimen 2: Specimen 2, lymphocytes of mite-allergic patient; for radioactivity of 3H-thymidine incorporated into lymphocytes, Specimen 3: Specimen 3, lymphocytes of mite-allergic patient. The format is cell-based, human. The protocol: (§1) Blast formation of lymphocytes by peptides of formula I-V of the present invention
(§2) Peripheral blood lymphocytes collected from a mite-allergic patient or a non-allergic subject were suspended in a cell culture medium RPMI 1640 supplemented with 10% fetal bovine serum, so as to give a suspension of 1×10^6 cells/ml. Then, the suspension (0.2 ml/well) prepared above was placed in a 96-well microplate for cell culture and further, 20 μl each of a solution of one of the peptides of the formula I-V was placed in the respective wells. The lymphocytes thus treated were cultivated in a humidified atmosphere containing 5% CO2 at 37° C. for 7 days. Thereafter, 20 μl of a ^3 H-thymidine solution (12.5 μCi/ml) was added to each of the wells and allowed to react overnight. The peripheral blood lymphocytes were then collected onto filter, and the radioactivity was measured by a liquid scintillation counter.
(§3) As is apparent from Table 1, virtually no incorporation of ^3 H-thymidine was recognized in the peripheral blood lymphocyte of a non-allergic subject, while a high radioactivity was detected from the peripheral blood lymphocytes of a mite-allergic patient.

Experiment [2] deals with peripheral blood lymphocytes of non-allergic subject. Briefly: Blast formation of lymphocytes (3H-thymidine incorporation), non-allergic subject. The format is cell-based, human. Particulars: Specimen 4, lymphocytes of non-allergic subject; 7 days culture with peptide, 3H-thymidine overnight. How it is done:
as §1, §2, §3
(In general: Dividing cells build labelled thymidine or BrdU into new DNA.)

Positions of bridges follow the written chain, without caps; N, C: chain ends. Residues, ends and D or L forms follow the SMILES beside them. Chains are numbered I, II in the order given.

For the compound “H-GVLACAIATHAKIRD-OH [III, H-Gly-Val-Leu-Ala-Cys-Ala-Ile-Ala-Thr-His-Ala-Lys-Ile-Arg-Asp-OH]”, in experiment [1], the “radioactivity of 3H-thymidine incorporated into lymphocytes, Specimen 1” value (“radioactivity … Specimen 1” below) is 547 cpm; the “radioactivity of 3H-thymidine incorporated into lymphocytes, Specimen 2” value (“radioactivity … Specimen 2” below) was found to be 259 cpm; the “radioactivity of 3H-thymidine incorporated into lymphocytes, Specimen 3” value (“radioactivity … Specimen 3” below) came to 158 cpm. In addition, in experiment [2], the “radioactivity of 3H-thymidine incorporated into lymphocytes, Specimen 4” value (“radioactivity … Specimen 4” below) is on record as less than 100 cpm.

Turning to `CC[C@H](C)[C@H](NC(=O)[C@H](C)NC(=O)[C@H](CSSC[C@H](NC(=O)[C@H](C)NC(=O)[C@H](CC(C)C)NC(=O)[C@@H](NC(=O)CN)C(C)C)C(=O)N[C@@H](C)C(=O)N[C@H](C(=O)N[C@@H](C)C(=O)N[C@H](C(=O)N[C@@H](Cc1c[nH]cn1)C(=O)N[C@@H](C)C(=O)N[C@@H](CCCCN)C(=O)N[C@H](C(=O)N[C@@H](CCCNC(=N)N)C(=O)N[C@@H](CC(=O)O)C(=O)O)[C@@H](C)CC)[C@@H](C)O)[C@@H](C)CC)NC(=O)[C@H](C)NC(=O)[C@H](CC(C)C)NC(=O)[C@@H](NC(=O)CN)C(C)C)C(=O)N[C@@H](C)C(=O)N[C@H](C(=O)N[C@@H](Cc1c[nH]cn1)C(=O)N[C@@H](C)C(=O)N[C@@H](CCCCN)C(=O)N[C@H](C(=O)N[C@@H](CCCNC(=N)N)C(=O)N[C@@H](CC(=O)O)C(=O)O)[C@@H](C)CC)[C@@H](C)O` [IV] (I: H-GVLACAIATHAKIRD-OH / II: H-GVLACAIATHAKIRD-OH; disulfide I:5-II:5), in experiment [1], the “radioactivity … Specimen 1” value was determined as 374 cpm; the “radioactivity … Specimen 2” value is 324 cpm; the “radioactivity … Specimen 3” value was determined as 162 cpm. In experiment [2], the “radioactivity … Specimen 4” value was less than 100 cpm.

Consider “H-DQVDVKDCANNEIKK-OH [I, H-Asp-Gln-Val-Asp-Val-Lys-Asp-Cys-Ala-Asn-Asn-Glu-Ile-Lys-Lys-OH]”, for which, in experiment [1], the “radioactivity … Specimen 1” value was determined as 281 cpm; the “radioactivity … Specimen 2” value came to 389 cpm; the “radioactivity … Specimen 3” value is on record as 282 cpm. In experiment [2], the “radioactivity … Specimen 4” value is on record as less than 100 cpm.

For the compound `CC[C@H](C)[C@H](NC(=O)[C@H](C)NC(=O)[C@H](CSSC[C@H](NC(=O)[C@H](CC(=O)O)NC(=O)[C@H](CCCCN)NC(=O)[C@@H](NC(=O)[C@H](CC(=O)O)NC(=O)[C@@H](NC(=O)[C@H](CCC(N)=O)NC(=O)[C@@H](N)CC(=O)O)C(C)C)C(C)C)C(=O)N[C@@H](C)C(=O)N[C@@H](CC(N)=O)C(=O)N[C@@H](CC(N)=O)C(=O)N[C@@H](CCC(=O)O)C(=O)N[C@H](C(=O)N[C@@H](CCCCN)C(=O)N[C@@H](CCCCN)C(=O)O)[C@@H](C)CC)NC(=O)[C@H](C)NC(=O)[C@H](CC(C)C)NC(=O)[C@@H](NC(=O)CN)C(C)C)C(=O)N[C@@H](C)C(=O)N[C@H](C(=O)N[C@@H](Cc1c[nH]cn1)C(=O)N[C@@H](C)C(=O)N[C@@H](CCCCN)C(=O)N[C@H](C(=O)N[C@@H](CCCNC(=N)N)C(=O)N[C@@H](CC(=O)O)C(=O)O)[C@@H](C)CC)[C@@H](C)O` [V] (I: H-DQVDVKDCANNEIKK-OH / II: H-GVLACAIATHAKIRD-OH; disulfide I:8-II:5), in experiment [1], the “radioactivity … Specimen 1” value is listed as 1457 cpm; the “radioactivity … Specimen 2” value came out at 430 cpm; the “radioactivity … Specimen 3” value worked out at 179 cpm. Besides, the “radioactivity … Specimen 4” value in experiment [2] is on record as less than 100 cpm.

In the case of `CC[C@H](C)[C@H](NC(=O)[C@H](CCC(=O)O)NC(=O)[C@H](CC(N)=O)NC(=O)[C@H](CC(N)=O)NC(=O)[C@H](C)NC(=O)[C@H](CSSC[C@H](NC(=O)[C@H](CC(=O)O)NC(=O)[C@H](CCCCN)NC(=O)[C@@H](NC(=O)[C@H](CC(=O)O)NC(=O)[C@@H](NC(=O)[C@H](CCC(N)=O)NC(=O)[C@@H](N)CC(=O)O)C(C)C)C(C)C)C(=O)N[C@@H](C)C(=O)N[C@@H](CC(N)=O)C(=O)N[C@@H](CC(N)=O)C(=O)N[C@@H](CCC(=O)O)C(=O)N[C@H](C(=O)N[C@@H](CCCCN)C(=O)N[C@@H](CCCCN)C(=O)O)[C@@H](C)CC)NC(=O)[C@H](CC(=O)O)NC(=O)[C@H](CCCCN)NC(=O)[C@@H](NC(=O)[C@H](CC(=O)O)NC(=O)[C@@H](NC(=O)[C@H](CCC(N)=O)NC(=O)[C@@H](N)CC(=O)O)C(C)C)C(C)C)C(=O)N[C@@H](CCCCN)C(=O)N[C@@H](CCCCN)C(=O)O` [II] (I: H-DQVDVKDCANNEIKK-OH / II: H-DQVDVKDCANNEIKK-OH; disulfide I:8-II:8), in experiment [1], the “radioactivity … Specimen 1” value came out at 219 cpm; the “radioactivity … Specimen 2” value is 125 cpm; the “radioactivity … Specimen 3” value amounted to 158 cpm. For the same compound, in experiment [2], the “radioactivity … Specimen 4” value is reported as less than 100 cpm.
